≈ marks a conversion by molar mass, not a printed value. Like-named read-outs stand apart in the source and are kept apart here.
How the values were obtained:
[1] = test system: KB epidermoid oral nesopharnyx; assay: Cytotoxicity, KB epidermoid oral nasopharynx; type: cell-based; details: Homo sapiens, read-out: ED50 (cytotoxicity), KB
Procedure: 6. KB epidermoid oral nesopharnyx. R. Geran, supra: H. Eagle, Proc. Soc. Expt.
Biol. 89, 362 (1955)(grown in EMEM +5% calf serum).
(§1) The cytotoxic screens were conducted according to NIH protocols, see E. Huang et al., J. Pharm. Sci. 61, 108 (1972), with 10^4 cells, growth medium, antibiotics and drugs from 0.5 to 100 μg/ml final concentration. For the L1210, Hela-S, amd Tmolt, (i.e. the suspended cells), the incubations were conducted in sterile test tubes in a final volume of 1 ml for 72 hr at 37° C. in a CO2 incubator. The cells on the third day were still in log growth phase. The number of cells/ml are determined using trypan blue exclusion and a hemocytometer. See, e.g., R. Geran, supra. For solid tumors there is plated out in wells 1×10^4 cells with 1 ml of medium+antibiotics and the other components of growth. When the controls have converged (≈95%) then the density of the cells is estimated and the ED50 values calculated.

Human Osteosarcoma TE418 = assay: Cytotoxicity, human osteosarcoma TE418; type: cell-based
Procedure: 5. Human Osteosarcoma TE418. H. Smith et al., Int. J. Cancer 17, 219 (1976) (grown in DMEM+10% FBS).
as §1

[2] = test system: Tmolt acute lymphoblastic T cell leukemia; assay: Cytotoxicity, Tmolt acute lymphoblastic T cell leukemia; type: cell-based; details: for IC50: T-cell, read-out: ED50 (cytotoxicity), Tmolt
Procedure: (§2) More specifically, the cytotoxic activity of the boron adducts of the present invention was tested on the following neoplastic cell lines:
2. Tmolt^S acute lymphoblastic T cell leukemia, S. Schreiber and N. Ikemoto, Tett. Lett 29, 3211 (1988) (grown in RPMI - 1640+10% FBS).
as §1

[3] = test system: L1210 lymphoid leukemia cells; assay: Cytotoxicity, L1210 lymphoid leukemia cells; type: cell-based; details: Mus musculus, read-out: ED50 (cytotoxicity), L1210
Procedure: as §2
1. L1210 lymphoid leukemia cells, R. Geran et al., Cancer Chemotherapy Reports 3, 7 (1972).(grown in RPMI+15% FBS+antibiotics).
as §1

P388 = assay: Cytotoxicity, P388; type: cell-based
Procedure: as §1

[4] = test system: SW480 human colorectal carcinoma; assay: Cytotoxicity, colon adenocarcinoma SW480 human colorectal carcinoma; type: cell-based
Procedure: as §2
3. Colon adenocarcinoma SW480 human colorectal carcinoma. A. Leibovitz et al., Cancer Res. 36, 4562 (1976) (grown in L15+10% FBS).
as §1

[5] = test system: Lung bronchogenic MB-9812; assay: Cytotoxicity, lung bronchogenic MB-9812; type: cell-based; details: read-out: ED50 (cytotoxicity), Lung Bronchogenic
Procedure: 4. Lung bronchogenic MB-9812, S. Aronson et al., Expt. Cell Res. 61, 1 (1970) (grown in EMEM+10% FBS+NEAA).
as §1

Hela-S = assay: Cytotoxicity, Hela-S cervical carcinoma suspended; type: cell-based; details: Homo sapiens, read-out: ED50 (cytotoxicity), Hela-S
Procedure: 7. Hela-S, ATCC-CCL 2.2, cervical carcinoma suspended, S. Schreiber and N. Ikemoto, supra; T. Puck et al., J. Exp. Med. 103. 273 (1956) (grown in Joklik+5% FBS, Ham's F12 +5% FBS).
as §1

[6] = test system: Human glioma cell EH 118 MG; assay: Cytotoxicity, human glioma cell EH 118 MG; type: cell-based; details: read-out: ED50 (cytotoxicity), Glioma
Procedure: 9. Human glioma cell EH 118 MG transformed stain of Rous sarcoma virus, J. Lutton et al., J. Biol. Chem. 254, 11181 (1979) (grown in DMEM-H+10% FCS).
as §1

inflammatory response = assay: Anti-inflammatory activity, carrageenan-injected hind foot; type: in vivo, CF1 male mice; details: mice; for Antiinflammatory Activity, % inhibition: 8 mg/kg/day, intraperitoneal, 3 hours and 30 minutes prior to carrageenan
Procedure: CF1 male mice (~25 g) were administered test drugs at 5-40 mg/kg in 0.05% Tween 80--H2 O intraperitoneally 3 hours prior to and 30 minutes prior to the injection of 0.2 ml of 1% carrageenan in 0.9% saline into the plantar surface of the right hind foot. Saline was injected into the left hind foot, which serves as a base line. After 3 hours, both feet were excised at the tibiotarsal (ankle) joint according to standard procedures. See C. Winter et al., Proc. Soc. Expt. Biol Med. 544, 111 (1962); A. Roszkawski et al., J. Pharm. Exp. Ther. 179, 114 (1971). Control mice afforded a 78±3 mg increase in paw weight.

[7] = test system: Serum triglyceride levels; assay: Antihyperlipidemic activity, serum triglyceride; type: in vivo, male CF1 mice; details: mice; for Hypolipidemic: Triglyceride Inhibition, % inhibition: 8 mg/kg/day, intraperitoneal, bled on day 16
Procedure: (§3) Compounds to be tested were suspended in 1% aqueous carboxymethylcellulose,homogenized and administered to male CF1 mice (25 g) intraperitoneally for 16d. On days 9 and 16, blood was obtained by tail vein bleeding, and the serum was separated by centrifugation for three minutes. The serum cholesterol levels were determined by a modification of the Liebermann--Burchard reaction in accordance with known techniques. See A. Ness, et al., Clin. Chim. Acta 10, 229 (1964). Serum triglyceride levels were determined with a commercial kit, the Fisher Hycel Triglyceride Test Kit, for a different group of animals bled on day 16.

[8] = Stability in aqueous medium by HPLC; type: physicochemical; details: for remaining at 168 h: period of 168 h, read-out: stable in aqueous medium; for stability in aqueous medium: in words
Procedure: By HPLC, compounds 3a, 3b, and 3d in aqueous medium (0.01 M TEAAc) are >94% stable over a period of 168 h. […], however, is >50% decomposed during this period.

serum cholesterol levels = assay: Antihyperlipidemic activity, serum cholesterol; type: in vivo, male CF1 mice; details: mice; for Hypolipidemic: Cholesterol Inhibition, % inhibition: 8 mg/kg/day, intraperitoneal for 16d
Procedure: as §3

[9] = read-out: ED50 (cytotoxicity), Osteo sarcoma
[10] = Mus musculus, P388, read-out: ED50 (cytotoxicity), P388
[11] = Homo sapiens, SW480, read-out: ED50 (cytotoxicity), Adeno Carcinoma SW480
[12] = Mus musculus, P388; read-out: ED50 (cytotoxicity), P388
[13] = Homo sapiens, SW480; read-out: ED50 (cytotoxicity), Adeno Carcinoma SW480
[14] = Osteosarcoma TE418, read-out: ED50 (cytotoxicity), Osteo sarcoma

SMILES	IC50 [1] [µg/mL]	IC50 ([2]; 72 h) [µg/mL]	IC50 ([3]; L1210, 72 h) [µg/mL]	IC50 (P388; [10]) [µg/mL]	IC50 [4, 11] [µg/mL]	IC50 [5] [µg/mL]	IC50 (Hela-S; HeLa, 72 h) [µg/mL]	IC50 [6] [µg/mL]	IC50 ([2]; Tmolt, 72 hr at 37° C.) [µg/mL]	IC50 ([3]; L1210, 72 hr at 37° C.) [µg/mL]	IC50 (P388; [12]) [µg/mL]	IC50 [4, 13] [µg/mL]	IC50 ([5]; Lung bronchogenic MB-9812) [µg/mL]	IC50 (Hela-S; Hela-S, 72 hr at 37° C.) [µg/mL]	IC50 ([6]; Glioma EH 118 MG) [µg/mL]	Antiinflammatory Activity, % inhibition (inflammatory response) [%]	Hypolipidemic: Triglyceride Inhibition, % inhibition [7] [%]	Hypolipidemic: Cholesterol Inhibition, % inhibition (serum cholesterol levels) [%]	further results
CC(C)[Si](OC[C@H]1O[C@@H](n2c[n+]([BH2-]C#N)c3c(=O)[nH]c(N)nc32)C[C@@H]1O[Si](C(C)C)(C(C)C)C(C)C)(C(C)C)C(C)C [Compound 2a, 3',5'-O-Bis(triisopropylsilyl)-2'-deoxyguanosine N7-cyanoborane]	2.67 (≈ 4.31 µM)	2.26 (≈ 3.65 µM)	6.05 (≈ 9.78 µM)	5.13 (≈ 8.29 µM)	2.67 (≈ 4.31 µM)	4.05 (≈ 6.55 µM)	2.83 (≈ 4.57 µM)	7.61 (≈ 12.3 µM)	–	–	–	–	–	–	–	–	–	–	IC50 (Human Osteosarcoma TE418; [9]): 7.2 µg/mL (≈ 11.6 µM)
CC(C)[Si](OC[C@H]1O[C@@H](n2c[n+]([BH2-]C#N)c3c(=O)[nH]cnc32)C[C@@H]1O[Si](C(C)C)(C(C)C)C(C)C)(C(C)C)C(C)C [Compound 2b, 3', 5-O-Bis(triisopropylislyl)-2'-deoxyinosine-N7-cyanoborane]	5.29 (≈ 8.76 µM)	6.49 (≈ 10.7 µM)	4 (≈ 6.63 µM)	7.31 (≈ 12.1 µM)	2.57 (≈ 4.26 µM)	6.2 (≈ 10.3 µM)	3.26 (≈ 5.4 µM)	6.21 (≈ 10.3 µM)	–	–	–	–	–	–	–	–	–	–	–
CC(C)[Si](OC[C@H]1O[C@@H](n2cnc3c(N)[n+]([BH2-]C#N)cnc32)C[C@@H]1O[Si](C(C)C)(C(C)C)C(C)C)(C(C)C)C(C)C [Compound 2c, 3', 5'-O-Bis(triisopropylsilyl)-2'-deoxyadenosine-N1-cyanoborane]	5.79 (≈ 9.61 µM)	1.88 (≈ 3.12 µM)	6.86 (≈ 11.4 µM)	7.46 (≈ 12.4 µM)	2.87 (≈ 4.76 µM)	5.58 (≈ 9.26 µM)	3.42 (≈ 5.67 µM)	4.99 (≈ 8.28 µM)	–	–	–	–	–	–	–	–	–	–	–
CC(C)[Si](OC[C@H]1O[C@@H](n2ccc(N)[n+]([BH2-]C#N)c2=O)C[C@@H]1O[Si](C(C)C)(C(C)C)C(C)C)(C(C)C)C(C)C [Compound 2d, 3', 5'-O-Bis(triisopropylsilyl)-2'-deoxycytidine-N3-cyanoborane]	5.72 (≈ 9.88 µM)	–	–	–	–	–	–	–	3.36 (≈ 5.81 µM)	4.78 (≈ 8.26 µM)	7.26 (≈ 12.5 µM)	2.73 (≈ 4.72 µM)	6.6 (≈ 11.4 µM)	2.94 (≈ 5.08 µM)	6.77 (≈ 11.7 µM)	–	–	–	–
N#C[BH2-][n+]1cn([C@H]2C[C@H](O)[C@@H](CO)O2)c2nc(N)[nH]c(=O)c21 [Compound 3a, 2'-Deoxyguanosine-N7-cyanoborane]	–	–	–	–	–	–	–	–	–	5.08 (≈ 16.6 µM)	5.87 (≈ 19.2 µM)	–	–	–	–	22	37	44	remaining at 168 h ([8]; 0.01 M TEAAc, HPLC): > 94%; stability in aqueous medium [8]: good stability
N#C[BH2-][n+]1cn([C@H]2C[C@H](O)[C@@H](CO)O2)c2nc[nH]c(=O)c21 [Compound 3b, 2'-Deoxyinosine-N^7-cyanoborane]	3.45 (≈ 11.9 µM)	–	–	–	–	–	–	–	1.73 (≈ 5.94 µM)	4 (≈ 13.7 µM)	7.21 (≈ 24.8 µM)	3.86 (≈ 13.3 µM)	4.93 (≈ 16.9 µM)	2.41 (≈ 8.28 µM)	8.49 (≈ 29.2 µM)	25	30	19	degraded at 168 h ([8]; 0.01 M TEAAc, 168 h, HPLC, read-out: decomposed in aqueous medium): > 50%; remaining at 168 h ([8]; 0.01 M TEAAc, HPLC): > 94%; IC50 (Human Osteosarcoma TE418; [14]): 7.28 µg/mL (≈ 25 µM)
N#C[BH2-][n+]1cnc2c(ncn2[C@H]2C[C@H](O)[C@@H](CO)O2)c1N [Compound 3c, 2'-Deoxyadenosine-N1-cyanoborane]	3.12 (≈ 10.8 µM)	–	–	–	–	–	–	–	1.36 (≈ 4.69 µM)	3.68 (≈ 12.7 µM)	5.96 (≈ 20.5 µM)	2.82 (≈ 9.72 µM)	5.26 (≈ 18.1 µM)	2.35 (≈ 8.1 µM)	6.88 (≈ 23.7 µM)	22	37	44	stability in aqueous medium [8]: good stability; IC50 (Human Osteosarcoma TE418; [14]): 7.39 µg/mL (≈ 25.5 µM); activity in T molt-3 screen ([2]; in words): potent activity; activity in human colorectal adenocarcinoma screen ([4]; in words): potent activity
CC(C)[Si](OC[C@H]1O[C@@H](n2ccc(N)[n+]([BH2-]C#N)c2=O)C[C@@H]1O)(C(C)C)C(C)C [Compound 4]	4.07 (≈ 9.64 µM)	2.34 (≈ 5.54 µM)	2.92 (≈ 6.91 µM)	–	2.71 (≈ 6.42 µM)	5.58 (≈ 13.2 µM)	3.63 (≈ 8.59 µM)	3.43 (≈ 8.12 µM)	–	–	–	–	–	–	–	–	–	–	IC50 (Human Osteosarcoma TE418; [9]): 6.62 µg/mL (≈ 15.7 µM)
CCOC(=O)C(C)(C)Oc1ccc(Cl)cc1 [clofibrate, reference compound]	–	–	–	–	–	–	–	–	–	–	–	–	–	–	–	–	–	–	Hypolipidemic: Triglyceride Inhibition, % inhibition (Standard) ([7]; standard (clofibrate at 130 mg/kg/day)): 25%; Hypolipidemic: Cholesterol Inhibition, % inhibition (Standard) (serum cholesterol levels; 130 mg/kg/day): 13%
CCCCC1C(=O)N(c2ccccc2)N(c2ccccc2)C1=O [phenylbutazone, reference compound]	–	–	–	–	–	–	–	–	–	–	–	–	–	–	–	–	–	–	Antiinflammatory Activity, % inhibition (Standard) (inflammatory response; standard, column head 8 mg/kg/day): 47%

— patent US5130302A, “Boronated nucleoside, nucleotide and oligonucleotide compounds, compositions and methods for using same” (Boron Bilogicals, Inc., priority 1989, dated 1992)
